Source: ChEMBL document CHEMBL1201862, “PubChem BioAssay data set” (2004)
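Each compound was tested at five concentrations against cells in 96-well plates for 48 hours. Here, GI50 denotes the concentration required for 50% inhibition of growth.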 Active and inactive are the calls of the source. Rule as the data show it: active = GI50 up to about 1.1 µM and inactive = higher.

What was measured:
Assay in all cases: DTP human tumour cell line panel, 48 h
EKVX = test system: EKVX
UO-31 = test system: UO-31
HL-60 = test system: HL-60
NCI/ADR-RES = test system: NCI/ADR-RES
A498 = test system: A498
SW-620 = test system: SW-620
HT-29 = test system: HT-29
NCI-H460 = test system: NCI-H460
COLO 205 = test system: COLO 205
DMS-273 = test system: DMS-273
DMS-114 = test system: DMS-114
RPMI-8226 = test system: RPMI-8226
Malme-3M = test system: Malme-3M
BT-549 = test system: BT-549
OVCAR-4 = test system: OVCAR-4
MOLT-4 = test system: MOLT-4
CCRF-CEM = test system: CCRF-CEM
PC-3 = test system: PC-3
KM-20L2 = test system: KM-20L2
HOP-18 = test system: HOP-18
OVCAR-5 = test system: OVCAR-5
OVCAR-3 = test system: OVCAR-3
A549 = test system: A549
Hs-578T = test system: Hs-578T
HCT-116 = test system: HCT-116
NCI-H522 = test system: NCI-H522
M14 = test system: M14
SNB-78 = test system: SNB-78
786-0 = test system: 786-0
LXFL 529 = test system: LXFL 529
SK-MEL-2 = test system: SK-MEL-2
LOX IMVI = test system: LOX IMVI
HCT-15 = test system: HCT-15
MCF7 = test system: MCF7
ACHN = test system: ACHN
U-251 = test system: U-251
KM12 = test system: KM12
HCC 2998 = test system: HCC 2998
UACC-62 = test system: UACC-62
NCI-H226 = test system: NCI-H226
UACC-257 = test system: UACC-257
IGROV-1 = test system: IGROV-1
SNB-75 = test system: SNB-75
DLD-1 = test system: DLD-1
RXF 393 = test system: RXF 393
OVCAR-8 = test system: OVCAR-8
K562 = test system: K562
CAKI-1 = test system: CAKI-1
HOP-62 = test system: HOP-62
SF-295 = test system: SF-295
TK-10 = test system: TK-10
NCI-H23 = test system: NCI-H23
SNB-19 = test system: SNB-19
M19-MEL = test system: M19-MEL
SN12C = test system: SN12C
HOP-92 = test system: HOP-92
SF-539 = test system: SF-539
SK-MEL-28 = test system: SK-MEL-28
SF-268 = test system: SF-268
SK-MEL-5 = test system: SK-MEL-5
SK-OV-3 = test system: SK-OV-3

COc1cc(CNc2ccc(SC)cc2)cc(OC)c1OC was tested, and the GI50 (EKVX) was 27.1 µM (inactive), the GI50 (UO-31) was 10.9 µM (inactive) and the GI50 (HL-60) was 2.55 µM (inactive). The GI50 (NCI/ADR-RES) was 3.15 µM (inactive), the GI50 (A498) was 13.6 µM (inactive) and the GI50 (SW-620) was 3.46 µM (inactive). The GI50 (HT-29) was 3.35 µM (inactive), the GI50 (NCI-H460) was 4.38 µM (inactive) and the GI50 (COLO 205) was 3.47 µM (inactive). For the same molecule, the GI50 (DMS-273) was 4.48 µM (inactive), the GI50 (DMS-114) was 3.37 µM (inactive) and the GI50 (RPMI-8226) was 8.57 µM (inactive). The GI50 (Malme-3M) was 7.29 µM (inactive), the GI50 (BT-549) was 1.63 µM (inactive) and the GI50 (OVCAR-4) was 27 µM (inactive). For the same molecule, the GI50 (MOLT-4) was 5.6 µM (inactive), the GI50 (CCRF-CEM) was 6.65 µM (inactive) and the GI50 (PC-3) was 6.95 µM (inactive). The GI50 (KM-20L2) was 4.31 µM (inactive), the GI50 (HOP-18) was 22.6 µM (inactive) and the GI50 (OVCAR-5) was 17.2 µM (inactive). For the same molecule, the GI50 (OVCAR-3) was 3.68 µM (inactive), the GI50 (A549) was 8.41 µM (inactive) and the GI50 (Hs-578T) was 11 µM (inactive). For the same molecule, the GI50 (HCT-116) was 4.71 µM (inactive), the GI50 (NCI-H522) was 2.88 µM (inactive) and the GI50 (M14) was 3.27 µM (inactive). The GI50 (SNB-78) was 53.8 µM (inactive), the GI50 (786-0) was 8.2 µM (inactive) and the GI50 (LXFL 529) was 12.6 µM (inactive). For the same molecule, the GI50 (SK-MEL-2) was 6.27 µM (inactive), the GI50 (LOX IMVI) was 5.75 µM (inactive) and the GI50 (HCT-15) was 4.23 µM. The GI50 (MCF7) was 3.36 µM (inactive).

For NC1=C(NC(=O)Cc2ccccc2F)C(=O)c2ccccc2C1=O, the GI50 (EKVX) was 59.3 µM (inactive), the GI50 (ACHN) was 76.9 µM (inactive) and the GI50 (U-251) was 36.5 µM (inactive). The GI50 (KM12) was > 100 µM (inactive), the GI50 (UO-31) was 92.7 µM (inactive) and the GI50 (HL-60) was 88.3 µM (inactive). For the same molecule, the GI50 (HCC 2998) was > 100 µM (inactive), the GI50 (SW-620) was 97.3 µM (inactive) and the GI50 (UACC-62) was 37.8 µM (inactive). The GI50 (NCI-H226) was > 100 µM (inactive), the GI50 (HT-29) was 46.7 µM (inactive) and the GI50 (UACC-257) was 29.6 µM (inactive). For the same molecule, the GI50 (IGROV-1) was 38.8 µM (inactive), the GI50 (NCI-H460) was 47.2 µM (inactive) and the GI50 (COLO 205) was > 100 µM (inactive). The GI50 (DMS-273) was 97.7 µM (inactive), the GI50 (DMS-114) was 41.8 µM (inactive) and the GI50 (RPMI-8226) was > 100 µM (inactive). The GI50 (SNB-75) was 18.8 µM (inactive), the GI50 (Malme-3M) was 13.6 µM (inactive) and the GI50 (DLD-1) was 16.6 µM (inactive). The GI50 (OVCAR-4) was 42 µM (inactive), the GI50 (RXF 393) was 34.4 µM (inactive) and the GI50 (MOLT-4) was > 100 µM (inactive). For the same molecule, the GI50 (OVCAR-8) was 39.2 µM (inactive), the GI50 (CCRF-CEM) was > 100 µM (inactive) and the GI50 (KM-20L2) was 40.7 µM (inactive). The GI50 (K562) was > 100 µM (inactive), the GI50 (HOP-18) was > 100 µM (inactive) and the GI50 (CAKI-1) was > 100 µM (inactive). For the same molecule, the GI50 (HOP-62) was 25.5 µM (inactive), the GI50 (OVCAR-3) was 8.26 µM (inactive) and the GI50 (A549) was 59.3 µM (inactive). The GI50 (HCT-116) was 44 µM (inactive), the GI50 (SF-295) was 32.6 µM (inactive) and the GI50 (NCI-H522) was 21.6 µM (inactive). For the same molecule, the GI50 (TK-10) was 41.2 µM (inactive), the GI50 (NCI-H23) was 40.6 µM (inactive) and the GI50 (M14) was > 100 µM (inactive). For the same molecule, the GI50 (SNB-19) was 35.8 µM (inactive), the GI50 (786-0) was 27.1 µM (inactive) and the GI50 (SK-MEL-2) was 14.3 µM (inactive). For the same molecule, the GI50 (M19-MEL) was 4.5 µM (inactive), the GI50 (SN12C) was 90.6 µM (inactive) and the GI50 (HOP-92) was 22.3 µM (inactive). The GI50 (SF-539) was 26.9 µM (inactive), the GI50 (SK-MEL-28) was > 100 µM (inactive) and the GI50 (HCT-15) was 24.2 µM. For the same molecule, the GI50 (SF-268) was 34.6 µM (inactive).

In the case of O=S(=O)(c1cccc(N=C=S)c1)c1cccc(N=C=S)c1, the GI50 (EKVX) is reported as > 100 µM (inactive), the GI50 (ACHN) is reported as 18.6 µM (inactive) and the GI50 (U-251) is reported as 18.9 µM (inactive). For the same molecule, the GI50 (KM12) was 27.5 µM (inactive), the GI50 (UO-31) was 28.7 µM (inactive) and the GI50 (HL-60) was 21.7 µM (inactive). For the same molecule, the GI50 (HCC 2998) was 21.8 µM (inactive), the GI50 (SW-620) was > 10 µM (inactive) and the GI50 (UACC-62) was 19.1 µM (inactive). The GI50 (UACC-257) was 20.4 µM (inactive), the GI50 (IGROV-1) was 18.7 µM (inactive) and the GI50 (NCI-H460) was > 10 µM (inactive). The GI50 (COLO 205) was 19.5 µM (inactive), the GI50 (DMS-273) was 18.7 µM (inactive) and the GI50 (DMS-114) was 15.5 µM (inactive). The GI50 (RPMI-8226) was 28.7 µM (inactive), the GI50 (SK-MEL-5) was 19.7 µM (inactive) and the GI50 (Malme-3M) was 18.9 µM (inactive). The GI50 (DLD-1) was 19.2 µM (inactive), the GI50 (RXF 393) was 8.11 µM (inactive) and the GI50 (MOLT-4) was 4.85 µM (inactive). For the same molecule, the GI50 (OVCAR-8) was > 10 µM (inactive), the GI50 (CCRF-CEM) was 5.51 µM (inactive) and the GI50 (KM-20L2) was 31.5 µM (inactive). For the same molecule, the GI50 (K562) was 16.3 µM (inactive), the GI50 (OVCAR-5) was 47 µM (inactive) and the GI50 (HOP-62) was 11.3 µM (inactive). The GI50 (OVCAR-3) was 11.6 µM (inactive), the GI50 (A549) was > 100 µM (inactive) and the GI50 (HCT-116) was 18.1 µM (inactive). The GI50 (SF-295) was 19.5 µM (inactive), the GI50 (NCI-H522) was 16.7 µM (inactive) and the GI50 (TK-10) was 20 µM (inactive). The GI50 (NCI-H23) was 17.1 µM (inactive), the GI50 (M14) was 11.4 µM (inactive) and the GI50 (SNB-78) was 30.6 µM (inactive). The GI50 (SNB-19) was 64.1 µM (inactive), the GI50 (786-0) was 16 µM (inactive) and the GI50 (LXFL 529) was 15.2 µM (inactive). For the same molecule, the GI50 (SK-MEL-2) was 18.5 µM (inactive), the GI50 (M19-MEL) was > 10 µM (inactive) and the GI50 (SN12C) was 22 µM (inactive). The GI50 (SF-539) was > 10 µM (inactive), the GI50 (LOX IMVI) was 17.7 µM (inactive) and the GI50 (SK-MEL-28) was 18.2 µM (inactive). For the same molecule, the GI50 (HCT-15) was 18.3 µM, the GI50 (SF-268) was 18.2 µM (inactive) and the GI50 (SK-OV-3) was 19.2 µM (inactive).
